According to USRE38169E1, “Hyperstabilizing antisense nucleic acid binding agents” (priority 1993, dated 2003):

How the values were obtained:
[1] = tested on: RNA sense / DNA-PO antisense duplex; test: Binding of drug to duplex (NACS column); set-up: species or system equine infectious anemia retrovirus; details: saturation; initial CC-1065/nucleotide 0.1; 37° C., 4 hr
Experimental: (§1) Oligodeoxyribonucleotides were obtained by chemical synthesis through standard techniques on an automated synthesizer located in the Department of Veterinary Microbiology and Parasitology at Louisiana State University. Antisense MP and PS oligonucleotides were obtained from commercial sources, as was synthetic sense RNA. Poly(rA) was obtained from Sigma Chemical Co. CC-1065 was obtained from the Upjohn Company. Oligonucleotides (0.075 μmol-P each) were mixed in 0.36 ml 0.01 M Na cacodylate buffer, pH 7.2, with CC-1065 in dimethyl formamide (0.04 ml), or with dimethylformamide only. (Note that “μmol-P” denotes μmoles of phosphate; i.e., μmoles of nucleotide bases, rather than of oligonucleotides per se.) Incubations of complementary strands, with or without drug, were carried out at 37° C. for 4 hr. In the initial experiments, unbound drug was separated from nucleotide duplexes by ethanol precipitation. Equivalent results were obtained by trapping the oligonucleotides and CC-1065 on NACS-52 columns, and washing first with low-salt buffer and then with buffer containing 1M NaCl. […] Samples prepared in this manner could be directly used for determination of binding of the drug to the nucleic acid (as measured by the A365/A260 ratio), with the extinction of CC-1065 absorbance at 365 nm taken as 48,000, and the extinction of the nucleic acid absorption at 260 nm based on its composition. […]

[2] = tested on: RNA sense / DNA-PS antisense duplex; test: Binding of drug to duplex (NACS column); set-up: species or system equine infectious anemia retrovirus; details: saturation; initial CC-1065/nucleotide 0.1; 37° C., 4 hr
Experimental: as §1

Oligo(dA)-Oligo(dT) = test: Binding of drug to duplex (NACS column, A365/A260); details: for Final D/N (CC-1065/nucleotide) Bound to Duplex: Oligo(dA)-Oligo(dT)
Experimental: (§2) Oligodeoxyribonucleotides were obtained by chemical synthesis through standard techniques on an automated synthesizer located in the Department of Veterinary Microbiology and Parasitology at Louisiana State University. Antisense MP and PS oligonucleotides were obtained from commercial sources, as was synthetic sense RNA. Poly(rA) was obtained from Sigma Chemical Co. CC-1065 was obtained from the Upjohn Company. Oligonucleotides (0.075 μmol-P each) were mixed in 0.36 ml 0.01 M Na cacodylate buffer, pH 7.2, with CC-1065 in dimethyl formamide (0.04 ml), or with dimethylformamide only. (Note that “μmol-P” denotes μmoles of phosphate; i.e., μmoles of nucleotide bases, rather than of oligonucleotides per se.) Incubations of complementary strands, with or without drug, were carried out at 37° C. for 4 hr. In the initial experiments, unbound drug was separated from nucleotide duplexes by ethanol precipitation. Equivalent results were obtained by trapping the oligonucleotides and CC-1065 on NACS-52 columns, and washing first with low-salt buffer and then with buffer containing 1M NaCl. Unbound CC-1065 was completely retained on the column. […] Samples prepared in this manner could be directly used for determination of binding of the drug to the nucleic acid (as measured by the A365/A260 ratio), with the extinction of CC-1065 absorbance at 365 nm taken as 48,000, and the extinction of the nucleic acid absorption at 260 nm based on its composition. Similar approaches were used with the drug U-71,184, with an assumed extinction of 32,000 at 365 nm.
(§3) When methyl phosphonate and synthetic RNA were used, the purities of the crude oligonucleotides were taken to be about 30%, based on the data sheet prepared by the supplier. (The remainder comprised primarily truncated sequences.) Appropriate excess amounts of these agents were included in the reactions to ensure helix formation. The corresponding sense or antisense oligonucleotides were maintained at 0.075 μmol-P in the reaction. […] Unpurified materials were used in these preliminary studies because of the relatively high cost of purified oligoribonucleotides. The majority of the contributions to A260 for these samples should be due to material that was not duplexed.
(§4) Table 1 summarizes binding data obtained from incubations of CC-1065 with nucleotides at greater than stoichiometric levels; the levels used in these experiments were 1 drug molecule/10 nucleotide residues, which is equivalent to 4 drug molecules/20-mer duplex. […] There seemed to be no difference in drug binding between antisense oligonucleotides with a PO and those with a PS backbone. Again, the 5′-AGTTA-3′ sequence on the sense strand was presumably the primary target, and the 3′-AAGTA-5′ on the antisense probe was presumably the secondary target.

Poly(rA)-Oligo(dT) = test: Binding of drug to duplex (NACS column, A365/A260); details: for Final D/N (CC-1065/nucleotide) Bound to Duplex: Poly(rA)-Oligo(dT)
Experimental: as §2, §3, §4

[3] = tested on: DNA sense (SEQ ID NO. 1) / DNA-MP antisense duplex (PO-MP); test: Duplex strand separation temperature (Tm); assay type: binding, equine infectious anemia retrovirus
Experimental: (§5) Samples for determining Tm were also obtained by the above procedures. […] Thus the effects of this agent on Tm were carried out with Distamycin in solution with the duplexes tested.
(§6) Tm's were determined on a Gilford 2400 Spectrophotometer set at 260 nm, with a 4-chamber Peltier-based temperature controller. Temperature was ramped linearly at 0.5° C./min. Absorbance data were acquired with a 12-bit A/D converter, and data were processed with Lotus 123W and SigmaPlot software. Tm values were determined from the plots as the midpoint of the thermal transitions.

[4] = tested on: DNA sense (SEQ ID NO. 1) / DNA-PS antisense duplex; test: Duplex strand separation temperature (Tm); assay type: binding, equine infectious anemia retrovirus
Experimental: as §5, §6

Poly rA - Oligo dT (PO) = test: Duplex strand separation temperature (Tm); assay type: binding
Experimental: as §5, §6

Oligo dA - Oligo dT = test: Duplex strand separation temperature (Tm); assay type: binding
Experimental: as §5, §6

calf thymus DNA = details: reported, cited from earlier work
[5] = tested on: DNA sense (SEQ ID NO. 1) / DNA-MP antisense duplex (PO-MP); test: Binding of drug to duplex (NACS column, A365/A260); set-up: species or system equine infectious anemia retrovirus; details: for Final D/N (CC-1065/nucleotide) Bound to Duplex: PO-MP
Experimental: as §2, §3, §4

[6] = tested on: DNA sense (SEQ ID NO. 1) / DNA-PS antisense duplex (PO-PS); test: Binding of drug to duplex (NACS column, A365/A260); set-up: species or system equine infectious anemia retrovirus; details: for Final D/N (CC-1065/nucleotide) Bound to Duplex: PO-PS
Experimental: as §2, §3, §4

[7] = tested on: DNA sense (SEQ ID NO. 1) / DNA-PO antisense (SEQ ID NO. 2) duplex (PO-PO); test: Binding of drug to duplex (NACS column, A365/A260); set-up: species or system equine infectious anemia retrovirus; details: for Final D/N (CC-1065/nucleotide) Bound to Duplex: PO-PO
Experimental: as §2, §3, §4

[8] = saturation, initial CC-1065/nucleotide 0.1, 37° C., 4 hr
[9] = CC-1065 initial D/N = 0.1, minimum Tm estimate
[10] = CC-1065 initial D/N = 0.025, regions lacking CC-1065
[11] = CC-1065 initial D/N = 0.025, regions with CC-1065

Structure (SMILES): COc1c(O)c2c(c3cc(C(=O)N4CCc5c4c(O)c(OC)c4[nH]c(C(=O)N6CC7CC78C6=CC(=O)c6[nH]cc(C)c68)cc54)[nH]c13)CCN2C(N)=O (centres unmarked) [CC-1065]
- Approx. No. CC-1065 Bound/20 Base Pairs [1]: ~1
- Approx. No. CC-1065 Bound/20 Base Pairs [2]: ~1
- Final D/N (CC-1065/nucleotide) Bound to Duplex (Oligo(dA)-Oligo(dT); Initial D/N 0.01): 0.008 ± 0.001
- Final D/N (CC-1065/nucleotide) Bound to Duplex (Oligo(dA)-Oligo(dT); Initial D/N 0.025): 0.018 ± 0.0006
- Final D/N (CC-1065/nucleotide) Bound to Duplex (Oligo(dA)-Oligo(dT); Initial D/N 0.04): 0.028 ± 0.006
- Final D/N (CC-1065/nucleotide) Bound to Duplex (Oligo(dA)-Oligo(dT); Initial D/N 0.065): 0.058 ± 0.002
- Final D/N (CC-1065/nucleotide) Bound to Duplex (Oligo(dA)-Oligo(dT); Initial D/N 0.10): 0.063 ± 0.002
- Approx. No. CC-1065 Bound/20 Base Pairs (Oligo(dA)-Oligo(dT); [8]): ~2.5
- Final D/N (CC-1065/nucleotide) Bound to Duplex (Poly(rA)-Oligo(dT); Initial D/N 0.01): 0.003 ± 0.002
- Final D/N (CC-1065/nucleotide) Bound to Duplex (Poly(rA)-Oligo(dT); Initial D/N 0.025): 0.008 ± 0.004
- Final D/N (CC-1065/nucleotide) Bound to Duplex (Poly(rA)-Oligo(dT); Initial D/N 0.04): 0.011 ± 0.004
- Final D/N (CC-1065/nucleotide) Bound to Duplex (Poly(rA)-Oligo(dT); Initial D/N 0.065): 0.022 ± 0.004
- Final D/N (CC-1065/nucleotide) Bound to Duplex (Poly(rA)-Oligo(dT); Initial D/N 0.10): 0.028 ± 0.001
- Approx. No. CC-1065 Bound/20 Base Pairs (Poly(rA)-Oligo(dT); [8]): ~1
- Tm ([3]; CC-1065 initial D/N = 0.025): 73.0 ± 2.0^4 °C
- Tm ([3]; CC-1065 initial D/N = 0.1): 74.0 ± 1.0^4 °C
- Duplex Strand Separation Temperature ([3]; DNA / DNA-MP, drug-bound duplex (Table 6)): 74.0 ± 1.04
- Tm Elevation ([3]; PO-MP, highest level of binding obtained): 21.5 °C
- Tm ([4]; CC-1065 initial D/N = 0.025): 81.3 ± 2.3^4 °C
- Tm [4, 9]: ≥ 84.7 ± 1.5^4,5 °C
- Duplex Strand Separation Temperature ([4]; DNA / DNA-PS, drug-bound duplex (Table 6)): ≥ 84.7 ± 1.5^4
- Tm Elevation ([4]; PS-PS, highest level of binding obtained): 20.5 °C
- Tm, lower transition of biphasic curve (Poly rA - Oligo dT (PO); [10]): 51 °C
- Tm, higher transition of biphasic curve (Poly rA - Oligo dT (PO); [11]): 76 °C
- Tm (Poly rA - Oligo dT (PO); [9]): ≥ 81.3 ± 0.6^4,5 °C
- Duplex Strand Separation Temperature (Poly rA - Oligo dT (PO); Poly rA / Oligo dT (PO), drug-bound duplex (Table 6)): ≥ 81.3 ± 0.6^4
- Stabilization of duplexes (Poly rA - Oligo dT (PO); poly(rA)-oligo(dT)): strong stabilization
- Tm Elevation (Poly rA - Oligo dT (PO); rA-dT, highest level of binding obtained): 28.3 °C
- Tm, lower transition of biphasic curve (Oligo dA - Oligo dT; [10]): 50 °C
- Tm, higher transition of biphasic curve (Oligo dA - Oligo dT; [11]): 85 °C
- Tm (Oligo dA - Oligo dT; [9]): ≥ 85.5 ± 0.7^4,5 °C
- Duplex Strand Separation Temperature (Oligo dA - Oligo dT; Oligo dA / Oligo dT, drug-bound duplex (Table 6)): ≥ 85.5 ± 0.7^4
- Tm Elevation (Oligo dA - Oligo dT; dA-dT, highest level of binding obtained): 28.5 °C
- Tm (calf thymus DNA; CC-1065 bound): ~100 °C
- Increase in Tm (calf thymus DNA; under the conditions of the experiment): over 30 °C
- Estimate of drug bound per duplex by titration with a range of MP ([5]; MP antisense oligonucleotides): # With MP antisense oligonucleotides, titration with a range of MP gave an estimate of 1 molecule bound per duplex. Precipitation with NaCl and EtOH gave similar results, but recoveries were lower. Single-strand components did not bind CC-1065.
- Binding for MP antisense sequences ([5]; MP antisense sequences): about 1 drug molecule/duplex
- Final D/N (CC-1065/nucleotide) Bound to Duplex ([5]; Initial D/N 0.025): 0.016 ± 0.0008
- Final D/N (CC-1065/nucleotide) Bound to Duplex ([5]; Initial D/N 0.04, single determination): 0.019^4
- Final D/N (CC-1065/nucleotide) Bound to Duplex ([5]; Initial D/N 0.10): 0.031 ± 0.001
- Approx. No. CC-1065 Bound/20 Base Pairs [5, 8]: ~1
- Final D/N (CC-1065/nucleotide) Bound to Duplex ([6]; Initial D/N 0.01): 0.010 ± 0
- Final D/N (CC-1065/nucleotide) Bound to Duplex ([6]; Initial D/N 0.025): 0.024 ± 0.0005
- Final D/N (CC-1065/nucleotide) Bound to Duplex ([6]; Initial D/N 0.04): 0.032 ± 0.001
- Final D/N (CC-1065/nucleotide) Bound to Duplex ([6]; Initial D/N 0.065): 0.047 ± 0.0005
- Final D/N (CC-1065/nucleotide) Bound to Duplex ([6]; Initial D/N 0.10): 0.049 ± 0
- Approx. No. CC-1065 Bound/20 Base Pairs [6, 8]: ~2
- Final D/N (CC-1065/nucleotide) Bound to Duplex ([7]; Initial D/N 0.01): 0.009 ± 0.0004
- Final D/N (CC-1065/nucleotide) Bound to Duplex ([7]; Initial D/N 0.025): 0.021 ± 0.001
- Final D/N (CC-1065/nucleotide) Bound to Duplex ([7]; Initial D/N 0.04): 0.030 ± 0.0004
- Final D/N (CC-1065/nucleotide) Bound to Duplex ([7]; Initial D/N 0.065): 0.049 ± 0.001
- Final D/N (CC-1065/nucleotide) Bound to Duplex ([7]; Initial D/N 0.10): 0.053 ± 0.002
- Approx. No. CC-1065 Bound/20 Base Pairs ([7]; saturation, initial CC-1065/nucleotide 0.1 (4 drug molecules per duplex), 37° C., 4 hr): ~2
